Assay results published in ChEMBL document CHEMBL4680377, “Discovery of a Novel Series of Pyridone-Based EP3 Antagonists for the Treatment of Type 2 Diabetes” (ACS Med Chem Lett, 2021).
In brackets after ≈: the same amount, converted by molar mass.

Assays:
[1] = Metabolic stability in rat liver microsomes assessed as intrinsic clearance half life; assay type: ADME, Microsome
[2] = Kinetic solubility of compound at pH 2; assay type: physicochemical; conditions: buffer, read-out: Kinetic_solubility
[3] = Metabolic stability in human liver microsomes assessed as intrinsic clearance half life; assay type: ADME, Microsome
[4] = Kinetic solubility of compound in PBS buffer; assay type: physicochemical; conditions: read-out: Kinetic_solubility
[5] = Apparent permeability across apical to basolateral side in dog MDCK cells; assay type: ADME, cell-based, Canis lupus familiaris
[6] = target: T1, Prostaglandin E2 receptor EP3 subtype (Homo sapiens, UniProt P43115); experiment: Displacement of [3H]-PGE2 from human EP3 expressed in Chem-1 cell membranes incubated for 2 hrs by TopCount scintillation plate reader analysis; parameters: species or system Membrane
T1 sequence (P43115 whole entry): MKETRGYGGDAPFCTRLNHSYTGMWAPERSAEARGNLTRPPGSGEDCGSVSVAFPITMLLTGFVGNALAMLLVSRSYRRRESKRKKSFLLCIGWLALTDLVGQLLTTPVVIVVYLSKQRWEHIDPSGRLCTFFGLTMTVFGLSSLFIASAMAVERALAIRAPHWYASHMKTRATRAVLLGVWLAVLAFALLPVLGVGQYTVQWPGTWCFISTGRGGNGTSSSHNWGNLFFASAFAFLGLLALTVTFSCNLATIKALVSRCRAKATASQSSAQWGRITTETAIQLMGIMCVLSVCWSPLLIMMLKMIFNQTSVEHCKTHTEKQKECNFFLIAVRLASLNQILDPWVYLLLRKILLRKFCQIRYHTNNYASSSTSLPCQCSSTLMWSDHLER

[7] = target: T1, Prostaglandin E2 receptor EP3 subtype; experiment: Antagonist activity at human EP3 expressed in CHO cells assessed as suppression of sulprostone-induced inhibition of forskolin induced cAMP production measured after 30 mins by HTR-FRET assay; assay type: functional, cell-based

SMILES	half-life [1] [h]	solubility kinetic [2] [µM]	half-life [3] [h]	solubility kinetic [4] [µM]	Papp A→B [5] [×10⁻⁶ cm/s]	Ki [6] [nM]	IC50 [7] [nM]
CC(C)(/C=C1\OC(=O)NC1=O)c1ccc(-c2ccc3cccc(F)c3c2)[nH]c1=O	> 3	1.66 (≈ 0.651 µg/mL)	1.89	36.1 (≈ 14.2 µg/mL)	–	–	–
CC(C)C(/C=C1/C(=O)NC(=O)N1C)c1ccc(-c2ccc3cccc(F)c3c2)[nH]c1=O (centres undefined)	1.08	8.3 (≈ 3.48 µg/mL)	> 3	34.8 (≈ 14.6 µg/mL)	14.1	–	–
CCC(/C=C1\OC(=O)NC1=O)(CC)c1ccc(-c2ccc3cccc(C(F)(F)F)c3c2)[nH]c1=O	1.09	–	0.353	–	–	–	–
CC(C)[C@@H](C[C@H]1SC(=O)NC1=O)c1ccc(-c2ccc3cccc(F)c3c2)[nH]c1=O (relative stereo)	0.77	12.2 (≈ 5.18 µg/mL)	1.24	23.9 (≈ 10.1 µg/mL)	25.5	–	–
CC(C)[C@@H](/C=C1\OC(=O)NC1=O)c1ccc(-c2ccc3cccc(F)c3c2)[nH]c1=O	> 3	4.62 (≈ 1.88 µg/mL)	> 3	26.4 (≈ 10.7 µg/mL)	–	–	–
CC(C)/C(=C1/SC(=O)NC1=O)c1ccc(-c2ccc3cccc(F)c3c2)[nH]c1=O	> 3	9.2 (≈ 3.76 µg/mL)	> 3	23.3 (≈ 9.52 µg/mL)	22.9	–	–
CCC(/C=C1\OC(=O)NC1=O)(CC)c1ccc(-c2ccc3c(F)cc(F)cc3c2)[nH]c1=O	–	–	–	–	–	290	–
CC(C)C(CC1NC(=O)NC1=O)c1ccc(-c2ccc3cccc(F)c3c2)[nH]c1=O (centres undefined)	0.35	13 (≈ 5.3 µg/mL)	1.59	12.3 (≈ 5.01 µg/mL)	17.1	–	–
CC(C)/C(=C1/OC(=O)NC1=O)c1ccc(-c2ccc3cccc(F)c3c2)[nH]c1=O	> 3	–	> 3	–	–	140	1300
CC(C)C(/C=C1\OC(=O)NC1=O)c1cc(Cl)c(-c2ccc3cccc(F)c3c2)[nH]c1=O (centres undefined)	> 3	3.2 (≈ 1.41 µg/mL)	> 3	21.5 (≈ 9.48 µg/mL)	–	–	–
CC(C)C(/C=C1\NC(=O)NC1=O)c1ccc(-c2ccc3cccc(F)c3c2)[nH]c1=O (centres undefined)	1.46	7.5 (≈ 3.04 µg/mL)	> 3	10.7 (≈ 4.34 µg/mL)	12.3	–	–
CCn1ncc2c(F)c(-c3ccc(C(/C=C4\OC(=O)NC4=O)(CC)CC)c(=O)[nH]3)ccc21	–	–	–	–	–	1300	> 20000
CCn1ncc2cc(F)c(-c3ccc(C(/C=C4\OC(=O)NC4=O)(CC)CC)c(=O)[nH]3)cc21	–	–	–	–	–	120	–
CC(C)/C(=C1\C(=O)NC(=O)N1C)c1ccc(-c2ccc3cccc(F)c3c2)[nH]c1=O	> 3	11.1 (≈ 4.5 µg/mL)	> 3	22.5 (≈ 9.12 µg/mL)	6.85	85	350
O=C1NC(=O)/C(=C/C(c2ccc(-c3ccc4cccc(F)c4c3)[nH]c2=O)C2CCCCC2)O1 (centres undefined)	2.39	–	1.09	–	–	–	–
CC(C)[C@@H](c1ccc(-c2ccc3cccc(F)c3c2)[nH]c1=O)[C@H]1OC(=O)NC1=O (relative stereo)	1.93	5.4 (≈ 2.13 µg/mL)	> 3	31.6 (≈ 12.5 µg/mL)	9.14	27	92
O=C1NC(=O)/C(=C/C(c2ccccc2)c2ccc(-c3ccc4cccc(F)c4c3)[nH]c2=O)O1 (centres undefined)	> 3	15.4 (≈ 6.78 µg/mL)	2.1	32.8 (≈ 14.4 µg/mL)	–	–	–
CCC(/C=C1\OC(=O)NC1=O)(CC)c1ccc(-c2ccc3cccc(C(C)C)c3c2)[nH]c1=O	1.88	–	0.758	–	–	120	–
CC(C)[C@H](C[C@H]1SC(=O)NC1=O)c1ccc(-c2ccc3cccc(F)c3c2)[nH]c1=O (relative stereo)	0.143	4.9 (≈ 2.08 µg/mL)	0.67	31.2 (≈ 13.2 µg/mL)	17.6	–	–
CCn1nc(C)c2ccc(-c3ccc(C(/C=C4\OC(=O)NC4=O)(CC)CC)c(=O)[nH]3)cc21	–	–	–	–	–	270	18000
CC(C)C(CC1C(=O)NC(=O)N1C)c1ccc(-c2ccc3cccc(F)c3c2)[nH]c1=O (centres undefined)	< 0.0667	26.6 (≈ 11.2 µg/mL)	0.153	33.6 (≈ 14.2 µg/mL)	17.6	–	–
CC(C)[C@@H](c1ccc(-c2ccc3cccc(F)c3c2)[nH]c1=O)[C@@H]1OC(=O)NC1=O (relative stereo)	1.27	6.9 (≈ 2.72 µg/mL)	> 3	27.4 (≈ 10.8 µg/mL)	3.15	85	610
